{"source": "patent US11931356B1", "about": "“Compositions and methods for treating human papilloma virus infections” (priority 2022, dated 2024)", "key": {"[1]": {"molecular_target": "C51S (cysteine 51 mutation to serine) HPV-16 E6 protein (Human papillomavirus type 16, UniProt P03126, C58S)", "sequence (P03126 8-158 C58S)": "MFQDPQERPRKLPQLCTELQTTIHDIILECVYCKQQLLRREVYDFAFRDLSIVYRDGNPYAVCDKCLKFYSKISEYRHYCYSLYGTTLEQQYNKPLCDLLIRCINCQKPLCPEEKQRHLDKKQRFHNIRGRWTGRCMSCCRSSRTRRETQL", "assay": "whole protein mass spectra of mutant C51S HPV-16 E6 protein upon exposure to compound", "assay_type": "binding, human papilloma virus 16", "conditions": "whole protein mass spectrum; cysteine 51 replaced by serine"}, "[2]": {"molecular_target": "HPV-16 E6 protein with Cys51 (Human papillomavirus type 16, UniProt P03126)", "sequence (P03126 8-158)": "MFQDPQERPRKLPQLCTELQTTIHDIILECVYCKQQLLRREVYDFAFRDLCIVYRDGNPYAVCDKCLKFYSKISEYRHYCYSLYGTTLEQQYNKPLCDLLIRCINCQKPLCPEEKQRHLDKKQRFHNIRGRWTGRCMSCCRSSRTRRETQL", "assay_type": "binding", "conditions": "whole protein mass spectrum"}}}
{"smiles": "C=CC(=O)N1CCN(c2nc(CCc3cnc(OC)c(F)c3)nc3sc4c(c23)CCCC4)CC1", "note": "[Compound 5]", "values": [{"measurement": "mass shift of the C51S HPV-16 E6 protein upon exposure to compound", "setting": "[1]", "value": "lack of mass shift"}, {"measurement": "mass shift of the HPV-16 E6 protein upon exposure to compound (covalent bonding at Cys51)", "setting": "[2]", "value": "mass shift"}]}
{"smiles": "C=CC(=O)N1CCN(c2nc(CCc3ccc(F)c(O)c3)nc3sc4c(c23)CCCC4)CC1", "note": "[Compound 3]", "values": [{"measurement": "mass shift of the C51S HPV-16 E6 protein upon exposure to compound", "setting": "[1]", "value": "lack of mass shift"}, {"measurement": "mass shift of the HPV-16 E6 protein upon exposure to compound (covalent bonding at Cys51)", "setting": "[2]", "value": "mass shift"}]}
{"smiles": "C=CC(=O)N1CCN(c2nc(CCc3ccc(F)c(OC)c3)nc3sc4c(c23)CCCC4)CC1", "note": "[Compound 1]", "values": [{"measurement": "mass shift of the C51S HPV-16 E6 protein upon exposure to compound", "setting": "[1]", "value": "lack of mass shift"}, {"measurement": "mass shift of the HPV-16 E6 protein upon exposure to compound (covalent bonding at Cys51)", "setting": "[2]", "value": "mass shift"}]}
{"smiles": "C=CC(=O)N1CCN(c2nc(CCc3ccc(OC)c(F)c3)nc3sc4c(c23)CCCC4)CC1", "note": "[Compound 10]", "values": [{"measurement": "mass shift of the C51S HPV-16 E6 protein upon exposure to compound", "setting": "[1]", "value": "lack of mass shift"}, {"measurement": "mass shift of the HPV-16 E6 protein upon exposure to compound (covalent bonding at Cys51)", "setting": "[2]", "value": "mass shift"}]}
{"smiles": "C=CC(=O)N1CCN(C(=O)CN2CCc3sccc3C2c2cccc3ccccc23)CC1", "note": "(stereo not shown) [Compound 7]", "values": [{"measurement": "mass shift of the C51S HPV-16 E6 protein upon exposure to compound", "setting": "[1]", "value": "lack of mass shift"}, {"measurement": "mass shift of the HPV-16 E6 protein upon exposure to compound (covalent bonding at Cys51)", "setting": "[2]", "value": "mass shift"}]}
{"smiles": "C=CC(=O)N1CCN(c2nc(CCc3ccc(OC)c(OC)c3)nc3sc4c(c23)CCCC4)CC1", "note": "[Compound 6]", "values": [{"measurement": "mass shift of the C51S HPV-16 E6 protein upon exposure to compound", "setting": "[1]", "value": "lack of mass shift"}, {"measurement": "mass shift of the HPV-16 E6 protein upon exposure to compound (covalent bonding at Cys51)", "setting": "[2]", "value": "mass shift"}]}
{"smiles": "C=CC(=O)N1CCN(c2nc(CCc3ccc(O)c(F)c3)nc3sc4c(c23)CCCC4)CC1", "note": "[Compound 2]", "values": [{"measurement": "mass shift of the C51S HPV-16 E6 protein upon exposure to compound", "setting": "[1]", "value": "lack of mass shift"}, {"measurement": "mass shift of the HPV-16 E6 protein upon exposure to compound (covalent bonding at Cys51)", "setting": "[2]", "value": "mass shift"}]}
{"smiles": "C=CC(=O)N1CCN(c2nc(C3CCCC3)nc3cccc(F)c23)CC1", "note": "[Compound 8]", "values": [{"measurement": "mass shift of the C51S HPV-16 E6 protein upon exposure to compound", "setting": "[1]", "value": "lack of mass shift"}, {"measurement": "mass shift of the HPV-16 E6 protein upon exposure to compound (covalent bonding at Cys51)", "setting": "[2]", "value": "mass shift"}]}
{"smiles": "C=CC(=O)N1CCN(c2nc(CCc3cccc(OC)c3)nc3ccccc23)C(C)C1", "note": "(stereo not shown) [Compound 11]", "values": [{"measurement": "mass shift of the C51S HPV-16 E6 protein upon exposure to compound", "setting": "[1]", "value": "lack of mass shift"}, {"measurement": "mass shift of the HPV-16 E6 protein upon exposure to compound (covalent bonding at Cys51)", "setting": "[2]", "value": "mass shift"}]}
{"smiles": "C=CC(=O)N1CCN(c2nc(CCc3cc(F)c(OC)c(F)c3)nc3sc4c(c23)CCCC4)CC1", "note": "[Compound 4]", "values": [{"measurement": "mass shift of the C51S HPV-16 E6 protein upon exposure to compound", "setting": "[1]", "value": "lack of mass shift"}, {"measurement": "mass shift of the HPV-16 E6 protein upon exposure to compound (covalent bonding at Cys51)", "setting": "[2]", "value": "mass shift"}]}
{"smiles": "C=CC(=O)N1CCN(C(=O)CN2CCc3sccc3C2c2cccc3ncccc23)CC1", "note": "(stereo not shown) [Compound 9]", "values": [{"measurement": "mass shift of the C51S HPV-16 E6 protein upon exposure to compound", "setting": "[1]", "value": "lack of mass shift"}, {"measurement": "mass shift of the HPV-16 E6 protein upon exposure to compound (covalent bonding at Cys51)", "setting": "[2]", "value": "mass shift"}]}
